Measured values published in patent US12503484B2, “Androstane derivatives with activity as pure or predominantly pure stimulators of SERCA2a for the treatment of heart failure” (Seismic Pharmaceuticals, priority 2019, dated 2025).
Counter-ions that a name gives are not always drawn.

Legend:
Muscarinic M5 = Muscarinic M5 (Homo sapiens (Human), UniProt P08912); assay: Receptor binding assay panel: Muscarinic M5
Description: (§1) Radioligand binding to a panel of receptors was carried out by Eurofins on crude membrane preparations according to published procedures and by using appropriate reference standard (Eurofin, Taiwan, compound code CVie216-3 (1226840), study #TW04-0004235, quote #TW04-0004235-Q04, for Cvie Therapeutics Limited, Taiwan). […] was tested at the concentration of 10 μM.

Dopamine D3 = Dopamine D3 (Homo sapiens (Human), UniProt P35462); assay: Receptor binding assay panel: Dopamine D3
panel of receptors = assay: Radioligand binding to a panel of receptors (Eurofins); settings: 10 μM
Androgen (Testosterone) = Androgen (Testosterone) (Homo sapiens (Human), UniProt P10275); assay: Receptor binding assay panel: Androgen (Testosterone)
Description: as §1

Adenosine A2A = Adenosine A2A (Homo sapiens (Human), UniProt P29274); assay: Receptor binding assay panel: Adenosine A2A
Muscarinic M3 = Muscarinic M3 (Homo sapiens (Human), UniProt P20309); assay: Receptor binding assay panel: Muscarinic M3
Description: as §1

[1] = system: ATPase, Ca2+, skeletal muscle; assay: Receptor binding assay panel: ATPase, Ca2+, skeletal muscle; type: biochemical, pig; settings: 10 μM
Description: as §1

[2] = biological target: Nitric Oxide Synthase, Endothelial (eNOS) (Bos taurus (Bovine), UniProt P29473); assay: Receptor binding assay panel: Nitric Oxide Synthase, Endothelial (eNOS); type: biochemical
Adrenergic β1 = Adrenergic β1 (Homo sapiens (Human), UniProt P08588); assay: Receptor binding assay panel: Adrenergic β1
[3] = Acute toxicity in the mouse; settings: Albino Swiss CD-1, in vivo
Description: The acute toxicity of the tested compound CVie214-salt and CVie216-salt have been determined in the mouse (Albino Swiss CD-1, body weight 30 g). Compounds have been orally administered or intravenously injected at increasing doses to identify the dose causing 50% mortality. Mortality occurred within 30 min after the administration and survival after 24 h.
As comparison, the acute toxicity for the reference compounds Digoxin and Istaroxime were also included. Digoxin refers to literature data (www.lookchem.com, Reference for Digoxin intravenous: Afifi A M, Ammar E M. Pharmacological Research Communications. Vol. 6, Pg. 417, 1974; Reference for Digoxin oral: Archives Internationales de Pharmacodynamie et de Therapie. Vol. 153, Pg. 436, 1965) (Table 3).

HMG-CoA Reductase = HMG-CoA Reductase (Homo sapiens (Human), UniProt P04035); assay: Receptor binding assay panel: HMG-CoA Reductase; type: biochemical
hERG potassium channel = hERG potassium channel (Homo sapiens (Human), UniProt Q12809); assay: Receptor binding assay panel: Potassium Channel hERG; settings: crude membrane preparations
Description: as §1

STZ diabetic rats = assay: Haemodynamics in streptozotocin diabetic rats (echocardiography); type: in vivo, rat
Description: CVie214 and CVie216 were tested in a diabetic rat model. Briefly, rats were injected with streptozotocin (STZ). After 7-9 weeks from STZ injection, rats were submitted to transthoracic echocardiographic and Doppler evaluation performed under urethane anesthesia. Two-dimensionally guided M-mode recordings were used to obtain short-axis measurements of left ventricular end-diastolic diameter (LVEDD), left ventricular end-systolic diameter (LVESD), posterior (PW) and septal (SW) diastolic wall thickness according to the American Society of Echocardiography guidelines (Lang R M et al., Eur J Echocardiography 2006, 7:79-108). Fractional shortening was calculated as FS=(LVEDD−LVESD)/LVEDD. Relative wall thickness was calculated as PWTd+IVSTd/LVEDD. Mitral inflow was measured by pulsed Doppler at the tips of mitral leaflets from an apical 4-chamber view to obtain early and late filling velocities (E, A) and deceleration time of early filling velocity (DT). The deceleration slope was calculated as E/DT ratio. The mitral deceleration index was calculated as DT/E ratio. Tissue Doppler Imaging (TDI) was evaluated from the apical 4-chamber view to record septal mitral annular movements, i.e., peak myocardial systolic (s′) and early and late diastolic velocity (e′ and a′).
After baseline hemodynamic measurements were taken, the rats were administered Digoxin, CVie214, CVie216 and compared to control. Digoxin, used as reference drug, was intravenously infused at 0.11 mg/kg/min for 15 min and echocardiographic parameters measured after 1 h. CVie214-salt and CVie216-salt were intravenously infused in STZ diabetic rats at 0.2 mg/kg/min and echocardiographic parameters were measured after 15 min and 30 min.
Tables 4-6 show the haemodynamic parameters in STZ diabetic rats for Digoxin, CVie214-salt, and Cvie216-salt.

[4] = system: Serotonin (5-Hydroxytryptamine) 5-HT1, non selective; assay: Receptor binding assay panel: Serotonin (5-Hydroxytryptamine) 5-HT1, non selective; design: species or system rat; settings: 10 μM
Dopamine D2s = Dopamine D2s (Homo sapiens (Human), UniProt P14416); assay: Receptor binding assay panel: Dopamine D2s
[5] = biological target: Nicotinic Acetylcholine α3β4 (Homo sapiens (Human), UniProt P30926+P32297); assay: Receptor binding assay panel: Nicotinic Acetylcholine α3β4
Description: as §1

Insulin = Insulin (Rattus norvegicus (Rat), UniProt P15127); assay: Receptor binding assay panel: Insulin
[6] = biological target: Transporter, Norepinephrine (NET) (Homo sapiens (Human), UniProt P23975); assay: Receptor binding assay panel: Transporter, Norepinephrine (NET)
Description: as §1

Potassium Channel (KATP) = Potassium Channel (KATP) (Cricetus cricetus (Black-bellied hamster), UniProt Q09427); assay: Receptor binding assay panel: Potassium Channel (KATP)
Description: as §1

Peptidase, Renin = Peptidase, Renin (Homo sapiens (Human), UniProt P00797); assay: Receptor binding assay panel: Peptidase, Renin; type: biochemical
[7] = after 15 min IV infusion 0.2 mg/kg/min
[8] = after 30 min IV infusion 0.2 mg/kg/min

Chain of Potassium Channel (KATP) (Q09427 whole entry, looked up): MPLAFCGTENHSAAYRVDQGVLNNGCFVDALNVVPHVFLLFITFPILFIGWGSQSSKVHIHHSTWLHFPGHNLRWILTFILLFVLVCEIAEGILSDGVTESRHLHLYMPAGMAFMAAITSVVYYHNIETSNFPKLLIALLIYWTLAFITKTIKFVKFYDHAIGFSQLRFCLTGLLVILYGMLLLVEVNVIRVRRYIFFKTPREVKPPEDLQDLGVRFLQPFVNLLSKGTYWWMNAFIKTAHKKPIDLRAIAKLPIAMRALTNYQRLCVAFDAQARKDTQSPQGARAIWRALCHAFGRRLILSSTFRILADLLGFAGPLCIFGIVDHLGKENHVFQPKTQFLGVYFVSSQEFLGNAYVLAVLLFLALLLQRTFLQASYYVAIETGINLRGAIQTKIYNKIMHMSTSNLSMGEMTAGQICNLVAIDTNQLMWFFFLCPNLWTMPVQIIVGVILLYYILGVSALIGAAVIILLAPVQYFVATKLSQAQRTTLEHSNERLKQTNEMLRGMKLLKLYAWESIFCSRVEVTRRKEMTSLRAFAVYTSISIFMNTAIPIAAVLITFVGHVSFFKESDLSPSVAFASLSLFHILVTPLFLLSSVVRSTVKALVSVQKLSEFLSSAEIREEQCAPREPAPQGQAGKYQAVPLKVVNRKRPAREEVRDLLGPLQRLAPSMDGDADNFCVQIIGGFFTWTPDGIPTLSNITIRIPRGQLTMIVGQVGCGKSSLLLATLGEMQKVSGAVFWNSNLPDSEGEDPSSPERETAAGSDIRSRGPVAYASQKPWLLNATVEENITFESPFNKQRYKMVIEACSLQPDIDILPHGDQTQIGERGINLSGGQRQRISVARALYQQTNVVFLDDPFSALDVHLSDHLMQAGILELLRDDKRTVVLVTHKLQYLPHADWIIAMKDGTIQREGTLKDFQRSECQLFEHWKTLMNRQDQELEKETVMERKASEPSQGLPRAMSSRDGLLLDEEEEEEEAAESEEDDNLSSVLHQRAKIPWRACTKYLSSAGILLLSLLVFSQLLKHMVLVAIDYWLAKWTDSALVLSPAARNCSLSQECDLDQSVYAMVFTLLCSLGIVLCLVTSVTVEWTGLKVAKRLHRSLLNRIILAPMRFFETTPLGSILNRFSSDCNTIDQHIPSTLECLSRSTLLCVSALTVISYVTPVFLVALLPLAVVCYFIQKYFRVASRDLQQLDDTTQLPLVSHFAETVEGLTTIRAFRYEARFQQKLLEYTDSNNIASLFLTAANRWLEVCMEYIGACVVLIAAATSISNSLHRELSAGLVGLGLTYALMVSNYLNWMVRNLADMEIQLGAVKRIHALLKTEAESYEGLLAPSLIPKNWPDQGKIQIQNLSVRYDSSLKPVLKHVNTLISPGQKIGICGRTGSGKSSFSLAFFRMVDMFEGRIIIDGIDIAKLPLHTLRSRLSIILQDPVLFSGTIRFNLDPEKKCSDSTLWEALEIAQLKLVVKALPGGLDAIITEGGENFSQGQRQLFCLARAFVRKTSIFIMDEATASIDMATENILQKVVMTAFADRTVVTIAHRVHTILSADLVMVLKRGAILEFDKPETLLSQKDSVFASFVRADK
Chain of Dopamine D3 (P35462 whole entry): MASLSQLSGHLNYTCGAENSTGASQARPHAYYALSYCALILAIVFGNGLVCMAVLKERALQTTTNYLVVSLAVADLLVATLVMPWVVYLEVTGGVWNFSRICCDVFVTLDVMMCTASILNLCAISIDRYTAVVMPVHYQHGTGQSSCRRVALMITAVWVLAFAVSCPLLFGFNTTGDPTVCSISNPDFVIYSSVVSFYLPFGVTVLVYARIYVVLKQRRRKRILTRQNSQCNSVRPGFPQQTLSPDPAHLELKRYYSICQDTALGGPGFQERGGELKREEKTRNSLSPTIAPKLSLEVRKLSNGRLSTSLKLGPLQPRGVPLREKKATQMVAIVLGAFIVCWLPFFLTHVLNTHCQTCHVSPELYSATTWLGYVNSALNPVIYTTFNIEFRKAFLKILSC
Chain of HMG-CoA Reductase (P04035 426-888): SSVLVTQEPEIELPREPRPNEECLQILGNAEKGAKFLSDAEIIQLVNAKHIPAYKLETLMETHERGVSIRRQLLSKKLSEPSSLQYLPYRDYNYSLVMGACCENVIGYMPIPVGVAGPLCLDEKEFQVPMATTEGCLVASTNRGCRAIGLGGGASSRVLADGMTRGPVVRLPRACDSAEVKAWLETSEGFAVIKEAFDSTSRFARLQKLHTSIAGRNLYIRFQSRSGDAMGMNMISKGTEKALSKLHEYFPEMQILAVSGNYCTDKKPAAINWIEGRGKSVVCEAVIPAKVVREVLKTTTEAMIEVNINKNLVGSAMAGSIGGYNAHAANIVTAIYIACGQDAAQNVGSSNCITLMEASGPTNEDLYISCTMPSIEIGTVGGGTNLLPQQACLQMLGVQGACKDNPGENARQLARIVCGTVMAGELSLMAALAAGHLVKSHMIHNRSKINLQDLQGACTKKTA
Chain of Androgen (Testosterone) (P10275 whole entry): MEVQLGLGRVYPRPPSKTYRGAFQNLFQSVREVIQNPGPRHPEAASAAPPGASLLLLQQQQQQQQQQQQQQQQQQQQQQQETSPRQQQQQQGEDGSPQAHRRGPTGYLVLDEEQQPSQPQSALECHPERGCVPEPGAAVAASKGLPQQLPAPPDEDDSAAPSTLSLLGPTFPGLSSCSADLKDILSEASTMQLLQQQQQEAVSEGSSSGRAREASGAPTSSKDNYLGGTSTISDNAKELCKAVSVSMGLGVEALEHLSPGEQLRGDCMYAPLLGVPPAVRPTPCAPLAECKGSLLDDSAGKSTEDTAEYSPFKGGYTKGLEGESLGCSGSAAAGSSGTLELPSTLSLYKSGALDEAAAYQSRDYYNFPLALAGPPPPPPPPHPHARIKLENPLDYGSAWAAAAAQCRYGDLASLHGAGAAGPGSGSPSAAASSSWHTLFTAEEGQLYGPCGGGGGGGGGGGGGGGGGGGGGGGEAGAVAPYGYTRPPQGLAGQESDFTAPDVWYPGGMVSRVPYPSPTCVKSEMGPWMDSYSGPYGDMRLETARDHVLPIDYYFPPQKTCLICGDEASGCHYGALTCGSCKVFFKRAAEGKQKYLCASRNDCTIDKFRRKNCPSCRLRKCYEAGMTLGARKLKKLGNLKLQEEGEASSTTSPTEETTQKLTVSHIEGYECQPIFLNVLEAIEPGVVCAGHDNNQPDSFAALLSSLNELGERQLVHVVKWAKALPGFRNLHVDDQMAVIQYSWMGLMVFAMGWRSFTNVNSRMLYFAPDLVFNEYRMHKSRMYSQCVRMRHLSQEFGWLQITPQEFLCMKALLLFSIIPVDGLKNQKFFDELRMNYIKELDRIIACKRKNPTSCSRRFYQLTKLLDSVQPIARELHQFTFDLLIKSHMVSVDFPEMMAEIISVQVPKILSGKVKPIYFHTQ
Chain of Adrenergic β1 (P08588 whole entry): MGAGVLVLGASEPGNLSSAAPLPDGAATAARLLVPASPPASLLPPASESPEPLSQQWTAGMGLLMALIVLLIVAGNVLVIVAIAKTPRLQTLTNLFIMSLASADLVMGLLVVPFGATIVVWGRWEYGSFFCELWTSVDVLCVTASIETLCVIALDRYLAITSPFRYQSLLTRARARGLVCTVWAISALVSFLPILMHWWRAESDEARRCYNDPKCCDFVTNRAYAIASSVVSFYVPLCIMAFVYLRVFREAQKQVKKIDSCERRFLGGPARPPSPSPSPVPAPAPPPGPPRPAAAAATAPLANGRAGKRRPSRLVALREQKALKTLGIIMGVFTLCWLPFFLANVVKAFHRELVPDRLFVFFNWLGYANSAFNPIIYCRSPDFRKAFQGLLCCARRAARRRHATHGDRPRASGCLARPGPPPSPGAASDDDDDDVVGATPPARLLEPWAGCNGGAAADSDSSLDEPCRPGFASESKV
Chain of Muscarinic M5 (P08912 whole entry): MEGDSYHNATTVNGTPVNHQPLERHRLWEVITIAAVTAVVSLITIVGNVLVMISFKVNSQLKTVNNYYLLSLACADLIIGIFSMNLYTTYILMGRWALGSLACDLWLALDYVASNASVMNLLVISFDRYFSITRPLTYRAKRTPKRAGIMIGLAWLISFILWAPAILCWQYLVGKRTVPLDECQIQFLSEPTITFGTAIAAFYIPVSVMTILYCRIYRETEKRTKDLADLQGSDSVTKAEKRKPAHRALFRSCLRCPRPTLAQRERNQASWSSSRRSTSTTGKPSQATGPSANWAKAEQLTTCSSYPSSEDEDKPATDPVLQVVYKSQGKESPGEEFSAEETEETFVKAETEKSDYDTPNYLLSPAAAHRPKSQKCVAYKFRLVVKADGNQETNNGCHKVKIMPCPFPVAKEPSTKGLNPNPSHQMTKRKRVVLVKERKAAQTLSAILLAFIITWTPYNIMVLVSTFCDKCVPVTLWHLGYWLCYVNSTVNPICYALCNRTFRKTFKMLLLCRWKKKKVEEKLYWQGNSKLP
Chain of Peptidase, Renin (P00797 67-406): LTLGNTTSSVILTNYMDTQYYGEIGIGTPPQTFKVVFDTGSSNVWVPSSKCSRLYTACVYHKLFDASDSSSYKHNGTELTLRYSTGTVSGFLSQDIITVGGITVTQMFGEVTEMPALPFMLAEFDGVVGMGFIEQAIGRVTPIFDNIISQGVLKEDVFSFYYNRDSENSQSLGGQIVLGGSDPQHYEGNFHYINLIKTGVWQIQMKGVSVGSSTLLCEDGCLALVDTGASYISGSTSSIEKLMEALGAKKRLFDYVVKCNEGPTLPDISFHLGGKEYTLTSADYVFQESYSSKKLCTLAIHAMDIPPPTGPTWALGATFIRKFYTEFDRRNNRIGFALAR

C[C@]12CC[C@H](CC(=O)O)CC1C(O)CC1C2CC[C@]2(C)C(=O)CCC12 (stereo in doubt) [CVie216-salt, 2-(6beta-hydroxy-17-oxoandrostane-3-yl) acetic acid]
inhibition at 10 µM (Muscarinic M5): 0%
inhibition at 10 µM (Dopamine D3): 0%
interaction on a panel of receptors (in words) (panel of receptors): No significant interaction
inhibition at 10 µM (Androgen (Testosterone)): 6%
inhibition at 10 µM (Adenosine A2A): -1%
inhibition at 10 µM (Muscarinic M3): -6%
% inhib [1]: −1%
inhibition at 10 µM [2]: 2%
inhibition at 10 µM (Adrenergic β1): 2%
LD50 at 24 h ([3]; iv): > 300 mg/kg
LD50 at 24 h ([3]; oral, os): > 700 mg/kg
inhibition at 10 µM (HMG-CoA Reductase): -4%
inhibition at 10 µM (hERG potassium channel): 0%
diastolic function (in words) (STZ diabetic rats; IV infusion): ameliorated diastolic function
overall cardiac function, SV and CO (in words) (STZ diabetic rats; IV infusion): improvement
A late filling velocity of mitral inflow (STZ diabetic rats; [7]): 0.66 ± 0.17 m/s
CO cardiac output (STZ diabetic rats; [7]): 165.45 ± 30.9 mL/min
DT deceleration time of E wave (STZ diabetic rats; [7]): 49.72 ± 12.56 ms
DT/E mitral deceleration index (STZ diabetic rats; [7]): 56.52 ± 16.45 s2/m
E early filling velocity of mitral inflow (STZ diabetic rats; [7]): 0.90 ± 0.13 m/s
E/A index of LV function (STZ diabetic rats; [7]): 1.42 ± 0.28
E/DT deceleration slope (STZ diabetic rats; [7]): 19.76 ± 8.27 m/s2
E/e′ index of LV filling pressure (STZ diabetic rats; [7]): 39.08 ± 5.04
FS fractional shortening (STZ diabetic rats; [7]): 56.29 ± 9.95%
HR heart rate (STZ diabetic rats; [7]): 221 ± 50 beat/min
SV stroke volume (STZ diabetic rats; [7]): 0.76 ± 0.12 ml/beat
a′ TDI late relaxation velocity (STZ diabetic rats; [7]): 25.85 ± 6.98 cm/s
e′ TDI early relaxation velocity (STZ diabetic rats; [7]): 23.1 ± 1.96 cm/s
s′ TDI contraction velocity (STZ diabetic rats; [7]): 22.47 ± 2.45 cm/s
A late filling velocity of mitral inflow (STZ diabetic rats; [8]): 0.68 ± 0.15 m/s
CO cardiac output (STZ diabetic rats; [8]): 181.82 ± 23.75 mL/min
DT deceleration time of E wave (STZ diabetic rats; [8]): 47.46 ± 10.17 ms
DT/E mitral deceleration index (STZ diabetic rats; [8]): 54.8 ± 12.84 s2/m
E early filling velocity of mitral inflow (STZ diabetic rats; [8]): 0.87 ± 0.09 m/s
E/A index of LV function (STZ diabetic rats; [8]): 1.34 ± 0.27
E/DT deceleration slope (STZ diabetic rats; [8]): 19.38 ± 5.39 m/s2
E/e′ index of LV filling pressure (STZ diabetic rats; [8]): significantly reduced
FS fractional shortening (STZ diabetic rats; [8]): 55.19 ± 7.32%
HR heart rate (STZ diabetic rats; [8]): 225 ± 50 beat/min
SV stroke volume (STZ diabetic rats; [8]): 0.83 ± 0.15 ml/beat
a′ TDI late relaxation velocity (STZ diabetic rats; [8]): 26.66 ± 6.94 cm/s
e′ TDI early relaxation velocity (STZ diabetic rats; [8]): 24.48 ± 2.1 cm/s
s′ TDI contraction velocity (STZ diabetic rats; [8]): 22.68 ± 3.18 cm/s
% inhib [4]: 12%
inhibition at 10 µM (Dopamine D2s): -4%
inhibition at 10 µM [5]: -3%
inhibition at 10 µM (Insulin): 4%
inhibition at 10 µM [6]: -4%
inhibition at 10 µM (Potassium Channel (KATP)): -11%
inhibition at 10 µM (Peptidase, Renin): 7%
